The values that follow come from ChEMBL document CHEMBL4177573 (Bioorg Med Chem, 2017).

Data set [1] has as its system Mus musculus. The data set can be described thus: Antiobesity activity in DIO C57BL/6J mouse assessed as reduction in body weight at 0.01 mg/kg, sc for 2 weeks dosed as continuous administration by infusion of osmotic pumps. Type of data set: functional. To be noted: 336 h.
A short description of data set [2]: Cmax in C57BL/6J mouse at 1 mg/kg, sc measured during 5 mins to 24 hrs by LC/MS/MS method. Type of data set: ADME, organism-based. More on the design: dose 1 mg/kg, route subcutaneous. To be noted: in vivo.
Data set [3] can be described thus: AUC (0 to 24 hrs) in C57BL/6J mouse at 1 mg/kg, iv measured during 5 mins to 24 hrs by LC/MS/MS method. Type of data set: ADME, organism-based. Further details: dose 1 mg/kg, time < 24 hr, route intravenous. To be noted: in vivo.
The nature of data set [4]: Total clearance in C57BL/6J mouse at 1 mg/kg, iv measured during 5 mins to 24 hrs by LC/MS/MS method. Format: ADME, organism-based. To be noted: in vivo.
Data set [5] is described as follows: MRT in C57BL/6J mouse at 1 mg/kg, iv measured during 5 mins to 24 hrs by LC/MS/MS method. Type of data set: ADME, organism-based. To be noted: in vivo.
Data set [6] can be described thus: AUC (0 to 24 hrs) in C57BL/6J mouse at 1 mg/kg, sc measured during 5 mins to 24 hrs by LC/MS/MS method. The conditions noted are these: in vivo. More on the design: time < 24 hr, dose 1 mg/kg, route subcutaneous. Type of data set: ADME, organism-based.
Data set [7] concerns Mus musculus. Briefly: Anorectic activity in C57BL/6J mouse assessed as inhibition of food intake at 0.03 mg/kg/day, sc for 3 days dosed as continuous administration by infusion using osmotic pump. Format: functional. The conditions noted are these: 72 h.
For data set [8], the target named is T1, Neuropeptide Y receptor type 2 (Homo sapiens, UniProt P49146).
T1 sequence (P49146 whole entry): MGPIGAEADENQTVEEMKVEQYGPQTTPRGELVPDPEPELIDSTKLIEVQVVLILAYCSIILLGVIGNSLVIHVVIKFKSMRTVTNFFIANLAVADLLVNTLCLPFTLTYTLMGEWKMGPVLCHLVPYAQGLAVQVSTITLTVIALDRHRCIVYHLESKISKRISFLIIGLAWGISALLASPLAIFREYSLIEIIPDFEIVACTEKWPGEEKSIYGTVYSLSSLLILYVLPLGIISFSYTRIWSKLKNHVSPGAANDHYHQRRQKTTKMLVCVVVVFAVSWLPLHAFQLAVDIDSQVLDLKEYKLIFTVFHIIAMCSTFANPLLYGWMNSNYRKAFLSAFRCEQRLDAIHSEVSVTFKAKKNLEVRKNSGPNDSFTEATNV
The data set can be described thus: Agonist activity at human neuropeptide Y2 receptor expressed in CHO cell membranes assessed as stimulation of [35S]GTPgammaS binding incubated for 120 mins by liquid scintillation counting method. Format: functional. (In general: GTPγS is a poorly hydrolysed GTP analogue; its binding reports G protein activation.)

For data set [9], the target named is T1, Neuropeptide Y receptor type 2. The data set can be described thus: Displacement of [125I]-PYY from human neuropeptide Y2 receptor expressed in CHO cell membranes incubated for 60 mins by TopCount based method. In general terms: In a radioligand displacement assay an active substance lowers the binding of a labelled ligand.
Data set [10] in a line: Bioavailability in C57BL/6J mouse at 1 mg/kg, sc measured during 5 mins to 24 hrs by LC/MS/MS method. To be noted: in vivo. Type of data set: ADME, organism-based.
Data set [11] relates to Mus musculus. Briefly: Anorectic activity in C57BL/6J mouse assessed as inhibition of food intake at 0.3 mg/kg/day, sc dosed as […] and measured after 12 hrs. Type of data set: functional.
In data set [12] the test system is Mus musculus. Briefly: Antiobesity activity in DIO C57BL/6J mouse assessed as reduction in body weight at 1 mg/kg, sc […] for 2 weeks dosed by infusion of osmotic pumps. Type of data set: functional. The conditions noted are these: 336 h.
A short description of data set [13]: MRT in C57BL/6J mouse at 1 mg/kg, sc measured during 5 mins to 24 hrs by LC/MS/MS method. Format: ADME, organism-based. To be noted: in vivo.
Data set [14] has as its system Mus musculus. The data set can be described thus: Drug level in C57BL/6J mouse at 1 mg/kg, iv measured during 5 mins to 24 hrs by LC/MS/MS method. Format: ADME, organism-based. To be noted: in vivo, read-out: Drug uptake.
Data set [15] is described as follows: Volume of distribution at steady state in C57BL/6J mouse at 1 mg/kg, iv measured during 5 mins to 24 hrs by LC/MS/MS method. Format: ADME, organism-based. To be noted: in vivo, read-out: Vdss.
A short description of data set [16]: Tmax in C57BL/6J mouse at 1 mg/kg, sc measured during 5 mins to 24 hrs by LC/MS/MS method. Format: ADME, organism-based. The conditions noted are these: in vivo.
For data set [17], the system named is Mus musculus. Briefly: Anorectic activity in C57BL/6J mouse assessed as inhibition of food intake at 0.3 mg/kg/day, sc dosed as […] and measured after 24 hrs. Type of data set: functional.

The term inhibition in vivo denotes how much of the control response was suppressed. The Cmax is the peak of the concentration-time curve. A word on the AUC(0-t): it is the area under the concentration-time curve up to a stated or last time point. High values mean high exposure, low ones low exposure. Usually clearance stands for the rate of elimination divided by the concentration. As usually defined, the MRT is the average time that molecules of a dose stay in the body. The term EC50 denotes the concentration giving half of the maximal effect. By IC50 is commonly meant the concentration that gives 50% inhibition. Read a low IC50 as inhibition by little substance. The term Tmax denotes the time from dosing to the highest level.

Each structure is given as a SMILES string.

With `CC[C@](C)(NC(=O)[C@H](CC1CCCCC1)NC(=O)[C@H](Cc1ccncc1)NC(=O)[C@](C)(CC)NC(=O)[C@H]1C[C@H](O)CN1C(=O)[C@H](CO)NC(C)=O)C(=O)N[C@@H](CC(N)=O)C(=O)N[C@@H](CCCCN)C(=O)NC(C)(C)C(=O)N[C@H](C(=O)N[C@@H](CCCNC(=N)N)C(=O)N[C@@H](CCC(N)=O)C(=O)N[C@@H](CCCNC(=N)N)C(=O)N[C@@H](CC1CCCCC1)C(N)=O)[C@@H](C)O`, in data set [1], the inhibition in vivo at 0.01 mg/kg worked out at 5%. In data set [2], this compound returned a Cmax of 666 nM. The figures for the AUC(0-t) at 24 h in [3] and in data set [6] were 0.435 µM·h and 0.469 µM·h, respectively. Further, the clearance in data set [4] was 19.5 mL/min/kg. Besides, the values for the MRT in data set [5] and in data set [13] were 21 min and 31.2 min, respectively. The inhibition in vivo at 0.03 mg/kg/day in data set [7] is 56%. The EC50 in data set [8] worked out at 0.17 nM. This compound had an IC50 in [9] of 0.46 nM. Also, the bioavailability in data set [10] was 108%. The inhibition in vivo at 0.3 mg/kg/day in [11] was 38%; in [17], 23%. For the same compound, the inhibition in vivo at 1 mg/kg in [12] amounted to 1.7%. In addition, in [14], the concentration stood at 1660 nM. In addition, the Vd in data set [15] came out at 0.41 L/kg. Besides, in data set [16], the Tmax was 15 min.
